Measurements published in patent US20240025849A1 (MAX DELBRÜCK-CENTRUM FÜR MOLEKULARE MEDIZIN IN DER …, priority 2020, published 2024).

Tested on: nNOS
Experiment: NOS enzyme activity assay (Eurofins), nNOS
Assay type: biochemical
Conditions: C1: 1 nM and 1 μM; 30 min reaction
Procedure: In mammalians NO is produced by the three isoforms of NOS: iNOS, eNOS, and nNOS. To evaluate the direct influence of cl on the different isoforms of NOS, an enzyme activity assay was conducted by Eurofins. C1 was mixed with the enzyme buffer, which included co-factors and substrates and by adding the enzyme the reaction was initiated. After 30 min the reaction was stopped, and NO concentration was measured. The results are normalised to positive control performed without any additional compounds and are presented as percentage in inhibition. […] To test the compounds effect on iNOS a concentration range from […] 5 μM were applied ([…], 1, 10, 100 nM, 1, and 5 μM), and for testing eNOS and nNOS 1 nM and 1 μM were applied.

## CSC(=N)N [S-Methylisothiourea, reference compound]
  enzymatic activity of nNOS: reduce the enzyme activity as predicted
